According to the supplement of paper PMC8671470:
± gives the standard deviation of the averaged measurements.

test system: HL-60; test: cell viability (% survival relative to DMSO control); higher = less cytotoxic; conditions: 0.1 µM; 72 h; co-treatment: DMSO vehicle
Procedure, shortened: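 A rescreen of the full library used HL-60 cells in RPMI 1640 with 10% FBS on 384-well plates, run in duplicate at five tenfold concentrations (1–10,000 nM). Each screen included DMSO or 100 nM of one of three metabolic inhibitors and ran 72 h at 37 °C, 5% CO2. CellTiter-Glo viability was scaled between DMSO and 10 μM proteasome-inhibitor wells. Any area under the curve comes from four-parameter log-logistic fits with drc and PharmacoGx.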

In order of falling cell viability:
1. CN(C)c1cc(NC(=O)CNC(C)(C)C)c(O)c2c1C[C@H]1C[C@H]3[C@H](N(C)C)C(=O)C(C(N)=O)C(=O)[C@@]3(O)C(=O)C1C2=O (stereo partly drawn) [Tigecycline]  105 ± 2.6%
2. COc1ccc2c(C(=S)N(C)CC(=O)O)cccc2c1C(F)(F)F [Tolrestat]  104 ± 2.6%
3. NC(=O)c1cccc(-c2cccc(OC(=O)NC3CCCCC3)c2)c1 [URB-597]  99.6 ± 1.3%
4. O=C1O[C@H]([C@@H](O)CO)C(O)=C1O [Vitamin C (ascorbate)]  98.77 ± 0.68%
5. Cc1cn([C@H]2C[C@H](O)[C@@H](COP(=O)(O)OP(=O)(O)O)O2)c(=O)[nH]c1=O [Thymidine diphosphate]  97.7 ± 1.8%
6. Oc1ccc(Nc2nc(-c3ccc(Cl)cc3)cs2)cc1 [SKI II]  97.6 ± 3.2%
7. CCC(=O)N1CCN(c2ccc(-n3c(=O)ccc4cnc5ccc(-c6cnc7ccccc7c6)cc5c43)cc2C(F)(F)F)CC1 [Torin1]  93.4 ± 14%

same assay, conditions: 0.1 µM; 72 h; co-treatment: GSK2194069 100 nM

In order of rising cell viability:
1. Nc1nc(Cl)nc2c1ncn2[C@H]1C[C@H](O)[C@@H](CO)O1 [Cladribine]  62.7 ± 7%
2. C=C(C)[C@H]1Cc2c(ccc3c2O[C@@H]2COc4cc(OC)c(OC)cc4[C@@H]2C3=O)O1 [Rotenone]  78.3 ± 0.99%
3. Cc1c(-c2ccc(-c3ccccc3F)cc2)nc2ccc(F)cc2c1C(=O)O [Brequinar]  84.9 ± 3.2%
4. O=C1c2cc([N+](=O)[O-])ccc2-n2c1nc1ccccc1c2=O [GNF-Pf-3777]  88.8 ± 4%
5. O=C(C1CC1)N1CC[C@@H](C=C2NNC(=O)N2c2ccc(-c3ccc4occc4c3)cc2)C1  92 ± 2.8%
6. CCC(=O)N1CCN(c2ccc(-n3c(=O)ccc4cnc5ccc(-c6cnc7ccccc7c6)cc5c43)cc2C(F)(F)F)CC1 [Torin1]  92.1 ± 16%
7. O=C1O[C@H]([C@@H](O)CO)C(O)=C1O [Vitamin C (ascorbate)]  96.8 ± 6.4%
8. COc1ccc2c(C(=S)N(C)CC(=O)O)cccc2c1C(F)(F)F [Tolrestat]  97.5 ± 1.3%
9. Cc1cn([C@H]2C[C@H](O)[C@@H](COP(=O)(O)OP(=O)(O)O)O2)c(=O)[nH]c1=O [Thymidine diphosphate]  97.8 ± 6%
10. NC(=O)c1cccc(-c2cccc(OC(=O)NC3CCCCC3)c2)c1 [URB-597]  98.1 ± 5.4%
11. C[C@H](NC(=O)c1sccc1OCc1ccc(Cl)cc1)c1ccccc1  98.7 ± 8.9%
12. O=C(O)C1=CC(=C(c2ccc(O)c(C(=O)O)c2)c2ccc(O)c(C(=O)O)c2)C=CC1=O [Aurintricarboxylic acid]  98.7 ± 6.2%
13. Oc1ccc(Nc2nc(-c3ccc(Cl)cc3)cs2)cc1 [SKI II]  99.8 ± 8.5%
14. CN(C)c1cc(NC(=O)CNC(C)(C)C)c(O)c2c1C[C@H]1C[C@H]3[C@H](N(C)C)C(=O)C(C(N)=O)C(=O)[C@@]3(O)C(=O)C1C2=O (stereo partly drawn) [Tigecycline]  101 ± 6%
15. COC(=O)[C@]12CCC(C)(C)C[C@H]1[C@H]1C(=O)C=C3[C@@]4(C)C=C(C#N)C(=O)C(C)(C)[C@@H]4CC[C@@]3(C)[C@]1(C)CC2 [Bardoxolone methyl]  104 ± 3.8%

same assay, conditions: 0.1 µM; 72 h; co-treatment: pictilisib 100 nM

In order of rising cell viability:
1. Nc1nc(Cl)nc2c1ncn2[C@H]1C[C@H](O)[C@@H](CO)O1 [Cladribine]  37.1 ± 4.7%
2. COC(=O)[C@]12CCC(C)(C)C[C@H]1[C@H]1C(=O)C=C3[C@@]4(C)C=C(C#N)C(=O)C(C)(C)[C@@H]4CC[C@@]3(C)[C@]1(C)CC2 [Bardoxolone methyl]  73.5 ± 3.1%
3. CCC(=O)N1CCN(c2ccc(-n3c(=O)ccc4cnc5ccc(-c6cnc7ccccc7c6)cc5c43)cc2C(F)(F)F)CC1 [Torin1]  80 ± 22%
4. C=C(C)[C@H]1Cc2c(ccc3c2O[C@@H]2COc4cc(OC)c(OC)cc4[C@@H]2C3=O)O1 [Rotenone]  83.9 ± 5.1%
5. Cc1c(-c2ccc(-c3ccccc3F)cc2)nc2ccc(F)cc2c1C(=O)O [Brequinar]  86.8 ± 3.4%
6. O=C1c2cc([N+](=O)[O-])ccc2-n2c1nc1ccccc1c2=O [GNF-Pf-3777]  92.2 ± 6.2%
7. O=C(C1CC1)N1CC[C@@H](C=C2NNC(=O)N2c2ccc(-c3ccc4occc4c3)cc2)C1  92.53 ± 0.68%
8. C[C@H](NC(=O)c1sccc1OCc1ccc(Cl)cc1)c1ccccc1  94.9 ± 13%
9. O=C(O)C1=CC(=C(c2ccc(O)c(C(=O)O)c2)c2ccc(O)c(C(=O)O)c2)C=CC1=O [Aurintricarboxylic acid]  96.2 ± 11%
10. O=C1O[C@H]([C@@H](O)CO)C(O)=C1O [Vitamin C (ascorbate)]  96.3 ± 3.5%
11. COc1ccc2c(C(=S)N(C)CC(=O)O)cccc2c1C(F)(F)F [Tolrestat]  96.8 ± 5.6%
12. NC(=O)c1cccc(-c2cccc(OC(=O)NC3CCCCC3)c2)c1 [URB-597]  100 ± 8.5%
13. Oc1ccc(Nc2nc(-c3ccc(Cl)cc3)cs2)cc1 [SKI II]  101 ± 4.1%
14. CN(C)c1cc(NC(=O)CNC(C)(C)C)c(O)c2c1C[C@H]1C[C@H]3[C@H](N(C)C)C(=O)C(C(N)=O)C(=O)[C@@]3(O)C(=O)C1C2=O (stereo partly drawn) [Tigecycline]  103.3 ± 0.24%
15. Cc1cn([C@H]2C[C@H](O)[C@@H](COP(=O)(O)OP(=O)(O)O)O2)c(=O)[nH]c1=O [Thymidine diphosphate]  106 ± 2.9%

same assay, conditions: 1 µM; 72 h; co-treatment: AZD3965 100 nM

In order of rising cell viability:
1. Nc1nc(Cl)nc2c1ncn2[C@H]1C[C@H](O)[C@@H](CO)O1 [Cladribine]  3.68 ± 1.7%
2. O=C(C1CC1)N1CC[C@@H](C=C2NNC(=O)N2c2ccc(-c3ccc4occc4c3)cc2)C1  76.9 ± 0.96%
3. C=C(C)[C@H]1Cc2c(ccc3c2O[C@@H]2COc4cc(OC)c(OC)cc4[C@@H]2C3=O)O1 [Rotenone]  83.4 ± 4.6%
4. Cc1c(-c2ccc(-c3ccccc3F)cc2)nc2ccc(F)cc2c1C(=O)O [Brequinar]  84.4 ± 8.2%
5. O=C1c2cc([N+](=O)[O-])ccc2-n2c1nc1ccccc1c2=O [GNF-Pf-3777]  89 ± 6%
6. COC(=O)[C@]12CCC(C)(C)C[C@H]1[C@H]1C(=O)C=C3[C@@]4(C)C=C(C#N)C(=O)C(C)(C)[C@@H]4CC[C@@]3(C)[C@]1(C)CC2 [Bardoxolone methyl]  90.8 ± 16%
7. O=C(O)C1=CC(=C(c2ccc(O)c(C(=O)O)c2)c2ccc(O)c(C(=O)O)c2)C=CC1=O [Aurintricarboxylic acid]  94.5 ± 6.3%
8. Cc1cn([C@H]2C[C@H](O)[C@@H](COP(=O)(O)OP(=O)(O)O)O2)c(=O)[nH]c1=O [Thymidine diphosphate]  102 ± 2.8%
9. C[C@H](NC(=O)c1sccc1OCc1ccc(Cl)cc1)c1ccccc1  103 ± 2.7%
10. CN(C)c1cc(NC(=O)CNC(C)(C)C)c(O)c2c1C[C@H]1C[C@H]3[C@H](N(C)C)C(=O)C(C(N)=O)C(=O)[C@@]3(O)C(=O)C1C2=O (stereo partly drawn) [Tigecycline]  103 ± 5%
11. Oc1ccc(Nc2nc(-c3ccc(Cl)cc3)cs2)cc1 [SKI II]  104 ± 0.68%
